PubChem BioAssay (NCI)
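Where inhibition never reached the appropriate level, the endpoint shown equals the highest concentration tested. Otherwise, values were interpolated linearly from a five-concentration, 48-hour dose response in 96-well plates. The concentration for full growth arrest is given as TGI.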

Legend:
Test in all cases: NCI anticancer screen, dose series, 48 h
HCC-2998 colon = tested on: HCC-2998 colon
MDA-MB-435 = tested on: MDA-MB-435
CCRF-CEM leukemia = tested on: CCRF-CEM leukemia
K-562 leukemia = tested on: K-562 leukemia
HOP-62 NSCLC = tested on: HOP-62 NSCLC
OVCAR-5 ovarian = tested on: OVCAR-5 ovarian
MDA-N = tested on: MDA-N
NCI-H522 lung = tested on: NCI-H522 lung
SN12C renal = tested on: SN12C renal
SF-539 CNS = tested on: SF-539 CNS
DU-145 prostate = tested on: DU-145 prostate
IGROV1 ovarian = tested on: IGROV1 ovarian
OVCAR-3 ovarian = tested on: OVCAR-3 ovarian
HCT-116 colon = tested on: HCT-116 colon
PC-3 prostate = tested on: PC-3 prostate
CAKI-1 renal = tested on: CAKI-1 renal
NCI-H460 lung = tested on: NCI-H460 lung
COLO 205 colon = tested on: COLO 205 colon
HCT-15 colon = tested on: HCT-15 colon
LOX IMVI melanoma = tested on: LOX IMVI melanoma
OVCAR-4 ovarian = tested on: OVCAR-4 ovarian
HT29 colon = tested on: HT29 colon
SK-OV-3 ovarian = tested on: SK-OV-3 ovarian
T-47D breast = tested on: T-47D breast
RPMI-8226 leukemia = tested on: RPMI-8226 leukemia
SF-295 CNS = tested on: SF-295 CNS
HOP-92 NSCLC = tested on: HOP-92 NSCLC
A498 renal = tested on: A498 renal
U251 CNS = tested on: U251 CNS
HS 578T breast = tested on: HS 578T breast
KM12 colon = tested on: KM12 colon
NCI/ADR-RES ovarian = tested on: NCI/ADR-RES ovarian
A549 NSCLC = tested on: A549 NSCLC
786-0 renal = tested on: 786-0 renal
SNB-19 CNS = tested on: SNB-19 CNS
SNB-75 CNS = tested on: SNB-75 CNS
UO-31 renal = tested on: UO-31 renal
SK-MEL-5 melanoma = tested on: SK-MEL-5 melanoma
NCI-H23 lung = tested on: NCI-H23 lung
MALME-3M melanoma = tested on: MALME-3M melanoma
SK-MEL-2 melanoma = tested on: SK-MEL-2 melanoma
OVCAR-8 ovarian = tested on: OVCAR-8 ovarian
NCI-H226 lung = tested on: NCI-H226 lung
BT-549 breast = tested on: BT-549 breast
TK-10 renal = tested on: TK-10 renal
SW-620 colon = tested on: SW-620 colon
ACHN renal = tested on: ACHN renal
RXF 393 renal = tested on: RXF 393 renal
MCF7 breast = tested on: MCF7 breast
EKVX NSCLC = tested on: EKVX NSCLC
SR leukemia = tested on: SR leukemia
HL-60(TB) leukemia = tested on: HL-60(TB) leukemia
UACC-257 melanoma = tested on: UACC-257 melanoma
SK-MEL-28 melanoma = tested on: SK-MEL-28 melanoma
M14 melanoma = tested on: M14 melanoma
UACC-62 melanoma = tested on: UACC-62 melanoma
MOLT-4 leukemia = tested on: MOLT-4 leukemia
SF-268 CNS = tested on: SF-268 CNS
MDA-MB-231 breast = tested on: MDA-MB-231 breast

SMILES: CCOC(=O)c1c(C)nc2c1c(CN(C)C)c(O)c1[nH]c(C)c(C)nc12
- TGI (HCC-2998 colon): 51 µM
- TGI (MDA-MB-435): 99.7 µM
- TGI (CCRF-CEM leukemia): 38.3 µM
- TGI (K-562 leukemia): > 100 µM
- TGI (HOP-62 NSCLC): 51 µM
- TGI (OVCAR-5 ovarian): 94 µM
- TGI (MDA-N): 54.7 µM
- TGI (NCI-H522 lung): 42.7 µM
- TGI (SN12C renal): 38.4 µM
- TGI (SF-539 CNS): 49.5 µM
- TGI (DU-145 prostate): > 100 µM
- TGI (IGROV1 ovarian): > 100 µM
- TGI (OVCAR-3 ovarian): 85.7 µM
- TGI (HCT-116 colon): 42.8 µM
- TGI (PC-3 prostate): 54.5 µM
- TGI (CAKI-1 renal): > 100 µM
- TGI (NCI-H460 lung): 61.1 µM
- TGI (COLO 205 colon): 40.4 µM
- TGI (HCT-15 colon): > 100 µM
- TGI (LOX IMVI melanoma): 37.8 µM
- TGI (OVCAR-4 ovarian): > 100 µM
- TGI (HT29 colon): 81.6 µM
- TGI (SK-OV-3 ovarian): 92.3 µM
- TGI (T-47D breast): 74.1 µM
- TGI (RPMI-8226 leukemia): 43.8 µM
- TGI (SF-295 CNS): 62.2 µM
- TGI (HOP-92 NSCLC): 96.6 µM
- TGI (A498 renal): 40 µM
- TGI (U251 CNS): 68.7 µM
- TGI (HS 578T breast): 70.8 µM
- TGI (KM12 colon): > 100 µM
- TGI (NCI/ADR-RES ovarian): 76.6 µM
- TGI (A549 NSCLC): > 100 µM
- TGI (786-0 renal): 49.5 µM
- TGI (SNB-19 CNS): > 100 µM
- TGI (SNB-75 CNS): 60.7 µM
- TGI (UO-31 renal): > 100 µM
- TGI (SK-MEL-5 melanoma): 29.1 µM
- TGI (NCI-H23 lung): 89.3 µM
- TGI (MALME-3M melanoma): 53.4 µM
- TGI (SK-MEL-2 melanoma): 43.8 µM
- TGI (OVCAR-8 ovarian): 60.4 µM
- TGI (NCI-H226 lung): 62.1 µM
- TGI (BT-549 breast): 76 µM
- TGI (TK-10 renal): 72.8 µM
- TGI (SW-620 colon): 95.2 µM
- TGI (ACHN renal): 69.9 µM
- TGI (RXF 393 renal): 65.7 µM
- TGI (MCF7 breast): 52.1 µM
- TGI (EKVX NSCLC): 92 µM
- TGI (SR leukemia): 51.5 µM
- TGI (HL-60(TB) leukemia): 25.2 µM
- TGI (UACC-257 melanoma): 61.3 µM
- TGI (SK-MEL-28 melanoma): 76.9 µM
- TGI (M14 melanoma): > 100 µM
- TGI (UACC-62 melanoma): 30.3 µM
- TGI (MOLT-4 leukemia): 85.6 µM
- TGI (SF-268 CNS): 93.1 µM

SMILES: Cc1ccccc1-n1c(=O)c2ncn(C3CCCO3)c2n(-c2ccccc2C)c1=S (stereo unspecified)
- TGI (HCC-2998 colon): > 100 µM
- TGI (MDA-MB-435): > 100 µM
- TGI (CCRF-CEM leukemia): > 100 µM
- TGI (K-562 leukemia): > 100 µM
- TGI (HOP-62 NSCLC): > 100 µM
- TGI (OVCAR-5 ovarian): > 100 µM
- TGI (MDA-N): > 100 µM
- TGI (NCI-H522 lung): > 100 µM
- TGI (SN12C renal): > 100 µM
- TGI (SF-539 CNS): > 100 µM
- TGI (DU-145 prostate): > 100 µM
- TGI (IGROV1 ovarian): > 100 µM
- TGI (OVCAR-3 ovarian): > 100 µM
- TGI (HCT-116 colon): > 100 µM
- TGI (CAKI-1 renal): > 100 µM
- TGI (COLO 205 colon): > 100 µM
- TGI (HCT-15 colon): > 100 µM
- TGI (LOX IMVI melanoma): > 100 µM
- TGI (HT29 colon): > 100 µM
- TGI (SK-OV-3 ovarian): > 100 µM
- TGI (T-47D breast): > 100 µM
- TGI (RPMI-8226 leukemia): > 100 µM
- TGI (SF-295 CNS): > 100 µM
- TGI (HOP-92 NSCLC): > 100 µM
- TGI (A498 renal): > 100 µM
- TGI (HS 578T breast): > 100 µM
- TGI (KM12 colon): > 100 µM
- TGI (NCI/ADR-RES ovarian): > 100 µM
- TGI (A549 NSCLC): > 100 µM
- TGI (786-0 renal): > 100 µM
- TGI (SNB-19 CNS): > 100 µM
- TGI (SNB-75 CNS): > 100 µM
- TGI (UO-31 renal): > 100 µM
- TGI (SK-MEL-5 melanoma): > 100 µM
- TGI (NCI-H23 lung): > 100 µM
- TGI (MALME-3M melanoma): > 100 µM
- TGI (SK-MEL-2 melanoma): > 100 µM
- TGI (OVCAR-8 ovarian): > 100 µM
- TGI (NCI-H226 lung): > 100 µM
- TGI (BT-549 breast): > 100 µM
- TGI (TK-10 renal): > 100 µM
- TGI (SW-620 colon): > 100 µM
- TGI (ACHN renal): > 100 µM
- TGI (RXF 393 renal): > 100 µM
- TGI (MCF7 breast): > 100 µM
- TGI (EKVX NSCLC): > 100 µM
- TGI (HL-60(TB) leukemia): > 100 µM
- TGI (UACC-257 melanoma): > 100 µM
- TGI (M14 melanoma): > 100 µM
- TGI (UACC-62 melanoma): > 100 µM
- TGI (MOLT-4 leukemia): > 100 µM
- TGI (SF-268 CNS): > 100 µM
- TGI (MDA-MB-231 breast): > 100 µM
